Measured values reported in patent US20230235378A1, “LZHEIMER'S DISEASE-SPECIFIC ALTERATIONS OF PROTEIN KINASE C EPSILON (PKC-EPSILON PROTEIN LEVELS” (WEST VIRGINIA UNIVERSITY BOARD OF GOVERNORS ON BEHALF OF …, priority 2010, published 2023).

Key:
[1] = Cell viability assay (alamar Blue and CyQuant staining); assay type: cell-based
Protocol: Aß Measurement and Cell Viability Assay. Aß was measured using an Aß 1-42 human fluorimetric ELISA kit (Invitrogen) according to the manufacturer's instructions. Results were measured in a Biotek Synergy HT microplate reader. AlamarBlue and CyQuant NF (Invitrogen) according to the manufacturer's instructions.

PKCε = biological target: T1, PKCε (Homo sapiens, UniProt Q02156); details: Kanno et al.; cited from earlier work
T1 construct: purchased Calbiochem (San Diego, Calif.)
T1 sequence (Q02156 1-737): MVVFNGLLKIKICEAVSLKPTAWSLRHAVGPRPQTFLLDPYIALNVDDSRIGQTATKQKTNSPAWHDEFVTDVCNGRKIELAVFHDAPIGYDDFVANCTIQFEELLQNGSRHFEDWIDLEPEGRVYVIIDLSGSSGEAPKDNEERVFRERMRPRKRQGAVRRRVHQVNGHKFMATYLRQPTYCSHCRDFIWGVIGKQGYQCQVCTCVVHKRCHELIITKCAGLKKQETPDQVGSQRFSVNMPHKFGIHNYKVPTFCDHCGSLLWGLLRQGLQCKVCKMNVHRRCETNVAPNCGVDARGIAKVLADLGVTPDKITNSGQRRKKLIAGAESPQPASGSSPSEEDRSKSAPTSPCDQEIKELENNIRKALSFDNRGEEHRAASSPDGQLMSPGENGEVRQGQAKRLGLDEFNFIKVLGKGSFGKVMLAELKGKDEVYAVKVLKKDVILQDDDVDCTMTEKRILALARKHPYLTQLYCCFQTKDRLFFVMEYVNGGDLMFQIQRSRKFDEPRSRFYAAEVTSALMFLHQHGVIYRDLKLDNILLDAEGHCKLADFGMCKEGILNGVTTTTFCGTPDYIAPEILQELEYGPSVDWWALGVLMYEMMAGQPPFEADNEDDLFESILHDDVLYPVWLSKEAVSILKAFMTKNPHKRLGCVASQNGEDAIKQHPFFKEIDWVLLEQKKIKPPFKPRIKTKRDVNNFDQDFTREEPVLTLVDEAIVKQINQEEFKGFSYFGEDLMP

SMILES: CCCCCC1CC1CC1CC1CCCCCCCC(=O)O (centres unmarked) [BR-101, 8-[2-(2-pentyl-cyclopropylmethyl)-cyclopropyl]-octanoic acid]
- effect on cell survival or proliferation [1]: no effect
- potency for PKCε over other PKC isozymes (PKCε): greater than 7 fold
